One molecule from paper PMC11603362, “Cannabidiol inhibits transient receptor potential canonical 4 and modulates excitability of pyramidal neurons in mPFC” (Frontiers in Pharmacology, 2024) can be followed below.

The target of this assay is T1, TRPC4 (Homo sapiens, UniProt Q9UBN4).
T1 construct: human TRPC4a channel
T1 sequence (Q9UBN4 1-977): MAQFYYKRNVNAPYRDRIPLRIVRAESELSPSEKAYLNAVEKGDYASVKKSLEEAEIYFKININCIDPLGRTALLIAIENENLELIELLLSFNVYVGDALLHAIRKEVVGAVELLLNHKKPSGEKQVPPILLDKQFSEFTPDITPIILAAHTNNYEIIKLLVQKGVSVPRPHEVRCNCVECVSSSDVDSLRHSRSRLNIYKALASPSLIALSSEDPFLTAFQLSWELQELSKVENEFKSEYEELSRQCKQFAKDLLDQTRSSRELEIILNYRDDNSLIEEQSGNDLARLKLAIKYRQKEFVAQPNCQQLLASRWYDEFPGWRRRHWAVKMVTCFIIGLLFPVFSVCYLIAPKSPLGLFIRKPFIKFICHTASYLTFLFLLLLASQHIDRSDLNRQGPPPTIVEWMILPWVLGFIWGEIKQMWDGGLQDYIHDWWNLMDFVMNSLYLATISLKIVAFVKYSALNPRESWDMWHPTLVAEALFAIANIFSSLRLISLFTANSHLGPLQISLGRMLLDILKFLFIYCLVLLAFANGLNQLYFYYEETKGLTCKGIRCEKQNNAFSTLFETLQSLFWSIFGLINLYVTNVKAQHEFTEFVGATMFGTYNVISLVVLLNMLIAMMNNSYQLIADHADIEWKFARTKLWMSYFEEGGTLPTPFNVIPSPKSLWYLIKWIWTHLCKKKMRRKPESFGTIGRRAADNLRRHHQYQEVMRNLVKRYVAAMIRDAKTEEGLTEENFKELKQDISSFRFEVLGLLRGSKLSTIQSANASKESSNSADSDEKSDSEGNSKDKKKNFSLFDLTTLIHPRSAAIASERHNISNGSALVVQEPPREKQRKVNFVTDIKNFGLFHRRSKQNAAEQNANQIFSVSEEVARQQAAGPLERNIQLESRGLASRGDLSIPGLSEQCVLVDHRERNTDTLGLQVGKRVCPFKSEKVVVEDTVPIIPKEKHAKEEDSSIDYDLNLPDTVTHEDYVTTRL
Briefly: whole-cell patch clamp in HEK293-TRPC4 cells (EA-evoked current); also Ca2+ influx assay. The format is cell-based. In general terms: In patch-clamp work, channel activity is measured electrically.

The IC50 is the midpoint of a concentration-inhibition curve. Consider `C=C(C)[C@@H]1CCC(C)=C[C@H]1c1c(O)cc(CCCCC)cc1O` [CBD, Cannabidiol], for which the midpoint of inhibition, the IC50, lay at 1520 ± 600 nM.
